Read-outs that look alike come from different tables or passages of the source. Marks after values point to notes of the source that are not given here.

The nature of series [1]: Foam tendency (dynamic foam test, ASTM G170-06). In kind it is physicochemical. The following applies: 1000 ppm active; 50/50 v/v Isopar M and 5% NaCl, 25° C. As for the experimental part: Foam tendencies were investigated using the methods described in ASTM G170-06 (2012) ‘Standard Guide for Evaluating and Qualifying Oilfield and Refinery Corrosion Inhibitors in the Laboratory’.
A graduated dynamic foam test apparatus (1000 ml measuring cylinder) fitted with a No. 1 porosity gas sparge tube was used for the test. 1000 ppm of corrosion inhibitor was added to a 50/50 v/v brine (5% NaCl solution) and Isopar M mixture (200 ml) at ambient temperature (25° C.). The mixture was left for 10 minutes before immersing the sparge tube in the brine layer. Nitrogen gas (flow rate: 0.5 litre/min) was injected into the solution and the volume of foam produced was measured over a set period of time (10 minutes).
If the foam reached the 1000 ml mark (800 ml foam volume) before the 10 minutes had elapsed then the time taken for the foam to reach the 1000 ml mark (800 ml of foam) was recorded. The volume of foam produced after the allotted time was also recorded.
The foam persistence was determined by measuring the foam volume after 10 minutes.

A short description of series [2]: Emulsion tendency (ASTM G-170). In kind it is physicochemical. The conditions noted are these: for Brine (ml) @ T = 30 mins / Isopar M (ml) @ T = 30 mins / Pad (ml) @ T = 30 mins / Emulsion Layer (%): 1000 ppm active, 50/50 v/v Isopar M and 5% NaCl, 25° C.; for Emulsion Layer (%): after 30 minutes. How it is done:
The emulsification behaviours of the alkyl phosphonic acids were investigated using the standard test procedure, ASTM G-170. It will be appreciated that, in general, corrosion inhibition formulations which have a low tendency to form emulsions with hydrocarbons are preferred.
1000 ppm active corrosion inhibitor formulation was added to a 250 ml measuring cylinder containing 100 ml 50/50 v/v 5% NaCl and Isopar M respectively. The cylinder was sealed and shaken 100 times.
The mixture was allowed to rest and the emulsion and brine layer volumes were recorded. The brine, Isopar M and emulsion layers were measured at 5, 10 and 30 minutes respectively.

A short description of series [3]: LPR (Linear Polarisation Resistance) bubble test, Example 2. The following applies: 90/10 5% NaCl/Isopar M, 60° C., CO2. How it is done: (§1) Corrosion inhibition properties were screened using the LPR (Linear Polarisation Resistance) bubble test method and the film persistence of the surfactants was evaluated using a Rotating Cylinder Electrode (RCE). The conditions were the same in both tests.
(§2) A 90/10 brine (5% w/w NaCl) and Isopar M (C9-15 iso-paraffins) mixture at 60° C. was saturated with CO2. The electrodes were immersed in the brine and left for several hours to establish the base line corrosion rate before injecting the surfactant.
The corrosion rate at 15 hours was used to benchmark the efficacy of the formulations containing octyl phosphonic acid against a commercial corrosion inhibitor. Synergistic properties of the surfactant mixtures were identified by comparing them against the corrosion rates of the individual surfactants.
The surfactant ratios for the LPR/RCE measurements were 80/20 and 50/50 Cl/octyl phosphonic acid and compared against the individual surfactants.

The nature of series [4]: RCE film persistence under high shear (4000 rpm), Example 2. The conditions noted are these: high shear rates (4000 rpm). How it is done:
as §1, §2
A shear rate of 4000 rpm was used to simulate very high shear conditions in order to determine the film persistence properties of the surfactants.
The persistence of the surfactant corrosion inhibitor film was also assessed under high shear rates (4000 rpm).

Series [5] can be described thus: Dynamic surface tension (maximum bubble pressure method). The format is physicochemical. The conditions noted are these: 1000 ppm (as active) in 5% NaCl, 25° C., surface age 30 seconds. How it is done:
Dynamic Surface Tension measurements were therefore carried out using a Messtechnik SITA T60 tensiometer for mixtures of the alkyl phosphonic acids with selected surfactants (anionic and amphoteric) in 5% NaCl.
These tests were carried out using the maximum bubble pressure method (see ‘Exploiting Surfactant Synergies in the Development of Foamers for Gas Well Deliqufication’, K Hatchman, C Jones, B Downward, G Collins, A Fellows, Proceedings of Chemistry In The Oil Industry XII, Royal Society of Chemistry, 2011).
The surface tensions were measured for 1000 ppm (as active) at a surface age of 30 seconds (equilibrium conditions) and ambient temperature (25° C.).

The conditions of series [6]: 20 ppm active; 1500 rpm; 60° C., CO2. As for the experimental part: An RCE film persistency test was carried out as follows: • A clean jacketed RCE corrosion cell was fitted with an auxiliary electrode, reference electrode, and gas sparge tube. • The cell was charged with 899.1 g of 5% NaCl brine. • The temperature of the circulator connected to the jacketed cell was set to 60° C. • A constant CO2 sparge of approx. 200 cm^3/min was passed through the brine in the RCE cell which was then left for 1 hour to reach equilibrium. • A C1018 mild steel coupon was washed in xylene and acetone to remove any vapour phase corrosion inhibitor and allowed to dry. • After the RCE cell reached equilibrium the mild steel coupon was connected to the RCE shaft and inserted into the RCE cell. • Isopar M 99.9 g was then carefully transferred into the cell so that it floated on top of the brine. (This is done at this stage to prevent the working electrode from becoming oil wet as a periscope is unavailable) • The rotator was turned on and set to 1500 rpm. • Baseline corrosion data was collected for approximately 2.5 hours. • During this time 2% (w/w active) stock solutions of samples 2 or 3 were made up in methanol.

Series [7] is described as follows: Rotating Cylinder Electrode (RCE) film persistency test (4000 rpm). The conditions noted are these: 20 ppm active, 60° C. How it is done: An RCE film persistency test was carried out as follows: • A clean jacketed RCE corrosion cell was fitted with an, auxiliary electrode, reference electrode, and gas sparge tube. • The cell was charged with 899.1 g of 5% NaCl brine. • The temperature of the circulator connected to the jacketed cell was set to 60° C. • A constant CO2 sparge of approx. 200 cm^3/min was passed through the brine in the RCE cell which was then left for 1 hour to reach equilibrium. • A C1018 mild steel coupon was washed in xylene and acetone to remove any vapour phase corrosion inhibitor and allowed to dry. • After the RCE cell reached equilibrium the mild steel coupon was connected to the RCE shaft and inserted into the RCE cell. • Isopar M 99.9 g was then carefully transferred into the cell so that it floated on top of the brine. (This is done at this stage to prevent the working electrode from becoming oil wet as a periscope is unavailable) • The rotator was turned on and set to 4000 rpm. (NB. This is the fastest speed achievable using current available equipment.) • Baseline corrosion data was collected for approximately 2.5 hours. • During this time a 2% (w/w active) stock solution of Rhodafac ASI 80 was made up in methanol. • After the baseline corrosion data was collected the stock solution was injected into the RCE cell at a concentration of 20 ppm (w/w active). • The corrosion rate in the cell was recorded for at least a further 12.5 hours.

A short description of series [8]: Solubility of samples when making stock solutions. The format is physicochemical. The conditions noted are these: 2% (w/w active) stock solutions in methanol.
The nature of series [9]: Bubble test (LPR), Example 1. The following applies: on its own. As for the experimental part:
A bubble test was carried out as follows: • Clean corrosion cells were fitted with a stirring bar, auxiliary electrode, reference electrode, gas sparge tube, and glass periscope. • Each cell was charged with 999 g of the desired corrosion fluid. In this instance a 5% NaCl brine and Isopar M oil phase was used in a 9:1 ratio. • The cells were placed in a water bath set at 60° C. and set to stir at approximately 300 rpm. • Each cell was connected to a constant sparge of CO2 approx. 60 cm^3/min and then left for 1 hour to reach equilibrium. • C1018 mild steel coupons were washed with xylene and acetone to remove any vapour phase corrosion inhibitor and allowed to dry. • After the cells reached equilibrium the mild steel coupons were connected to the working electrodes and inserted into each cell using the glass periscopes to avoid getting the electrodes oil wet. • The LPR run was started and baseline corrosion data was collected for approximately 2.5 hours. • During this time 2% (w/w product) stock solutions of samples 1&2 were made up in deionised water.
The skilled reader will appreciate that the bubble test can only be used to evaluate if a product acts as a corrosion inhibitor and to rank corrosion inhibitors in order of effectiveness. […]

Consider `CCCCCCCCCCCCP(=O)(O)O` [Lauryl Phosphonic Acid (100%), Lauryl Phosphonic Acid], for which, in series [1], the “Foam Volume after 10 minutes” value is 0 mL and the “Time to 1000 ml (secs)” value is “No foam”. For the same compound, in series [2], the “Brine (ml) @ T = 30 mins” value is 41 mL, the “Isopar M (ml) @ T = 30 mins” value is 12** ml, the “Pad (ml) @ T = 30 mins” value was determined as 0 mL and the “Emulsion Layer (%)” value is given as 0%. Moreover, the “observation on the hydrocarbon layer” value in series [2] (emulsification test, footnote) was “**Lauryl phosphonic acid appears to gel the hydrocarbon, effectively reducing the phase separation rate of the different layers”. In addition, in [3] (4 ppm), the “Average corrosion rate [bubble test] (mils/y)” value worked out at 174.2 mils/y, the “Average corrosion rate [weight loss] (mils/y)” value was determined as 146.8 mils/y and the “Effciency at T = 15 (%)” value was found to be 27.6%. In series [3] (20 ppm), the “Average corrosion rate [bubble test] (mils/y)” value was 33.4 mils/y, the “Average corrosion rate [weight loss] (mils/y)” value is given as 58.5 mils/y and the “Effciency at T = 15 (%)” value is given as 98.5%. In [4] (4 ppm), the “Average corrosion rate [bubble test] (mils/y)” value was found to be 174.2 mils/y, the “Average corrosion rate [weight loss] (mils/y)” value worked out at 146.8 mils/y and the “Effciency at T = 15 (%)” value came out at 27.6%. In addition, in [4] (20 ppm), the “Average corrosion rate [bubble test] (mils/y)” value came out at 33.4 mils/y, the “Average corrosion rate [weight loss] (mils/y)” value is recorded as 58.5 mils/y and the “Effciency at T = 15 (%)” value worked out at 98.5%.

For the compound `CCCCCCCCCCCCP(=O)(O)O` [Lauryl Phosphonic Acid], the “Surface tension at 30 second (mN/m)” value in series [5] is given as 38.8* mN/m.

As for `CCCCCCCCP(=O)(O)O` [Octyl Phosphonic Acid (80%), Octyl Phosphonic Acid], in series [1], the “Foam Volume after 10 minutes” value was 0 mL and the “Time to 1000 ml (secs)” value is recorded as “No foam”. Moreover, in series [6], the “Average corrosion rate (RCE test)” value is 61 mils/y, the “Average corrosion rate (Weight Loss)” value turned out to be 56 mils/y and the “Efficiency at T = 15” value was determined as 96%. In series [3] (4 ppm), the “Average corrosion rate [bubble test] (mils/y)” value is on record as 267.4 mils/y, the “Average corrosion rate [weight loss] (mils/y)” value is given as 244.3 mils/y and the “Effciency at T = 15 (%)” value is 0%. For the same compound, in series [3] (20 ppm), the “Average corrosion rate [bubble test] (mils/y)” value is 49.1 mils/y, the “Average corrosion rate [weight loss] (mils/y)” value was found to be 48.1 mils/y and the “Effciency at T = 15 (%)” value is recorded as “greater than 95%”. For the same compound, in series [3] (20 ppm, listed as OPA (80%)), the “Effciency at T = 15 (%)” value came to 96.3%. In series [7] (CO2), the “Average corrosion rate (RCE test)” value was 89 mils/y, the “Average corrosion rate (Weight Loss)” value amounted to 56 mils/y and the “Effciency at T = 15” value is 93%. Moreover, the “Effciency at T = 15” value in series [7] (CO2, listed as octylphosphonic acid) is recorded as over 90%. Also, in series [8], the solubility in methanol entry is “fully soluble in methanol”. Also, in series [4] (4 ppm), the “Average corrosion rate [bubble test] (mils/y)” value turned out to be 267.4 mils/y, the “Average corrosion rate [weight loss] (mils/y)” value came to 244.3 mils/y and the “Effciency at T = 15 (%)” value came out at 0%. In series [4] (20 ppm), the “Average corrosion rate [bubble test] (mils/y)” value was found to be 49.1 mils/y, the “Average corrosion rate [weight loss] (mils/y)” value is recorded as 48.1 mils/y and the “Effciency at T = 15 (%)” value is 96.3%.

On to `CCCCCCCCP(=O)(O)O` [Octyl Phosphonic Acid (100%)—OPA, Octyl Phosphonic Acid], for which, in [2], the “Brine (ml) @ T = 30 mins” value was found to be 50 mL, the “Isopar M (ml) @ T = 30 mins” value amounted to 50 mL, the “Pad (ml) @ T = 30 mins” value was 0 mL and the “Emulsion Layer (%)” value is recorded as 0%.

With `CCCCCCCCP(=O)(O)O` [Octyl Phosphonic Acid], the “Surface tension at 30 second (mN/m)” value in series [5] is 58.5* mN/m.

For ethylhexyl acid phosphate, in [9], the corrosion inhibition properties entry was “no corrosion inhibition properties”.

The record behind these values is patent US10017681B2, “Corrosion inhibitors” (RHODIA OPERATIONS, priority 2014, dated 2018).
